In PMC7865627, “Small Molecule-Based Prodrug Targeting Prostate Specific Membrane Antigen for the Treatment of Prostate Cancer” (Cancers, 2021):
“Also recorded” adds a separate entry of the source. Where two headings read alike, the source gives them in different places. *1 amine or outer side, *2 acyl side, *3 side chain or, on linkers, in order; H or OH if unused. Where a SMILES comes first, the peptide text is derived from it. Bridges are numbered along the chain shown (N, C = ends). Roman numbers before positions name the chains, in order. [ ]: non-standard residue; d: D form. The star is where a group is joined. Hexanoyl(6-succinimido-3yl) = O=C1CC([*:1])C(=O)N1CCCCCC(=O)[*:2]; Dolaproine = CO[C@@H]([C@@H]1CCCN1)[C@@H](C)C(=O)O; Dil = CC[C@H](C)[C@H](NC)[C@@H](CC(=O)O)OC; γGlu = O=C(O)[C@H](CCC(=O)[*:2])N[*:1]; PABC = O=C(OCc1ccc(N[*:1])cc1)[*:2]; X2 = C[C@@H](N*)[C@@H](O)c1ccccc1; X1 = O=C(C1CCC(CN[*:1])CC1)[*:2]; Cit = NC(=O)NCCC[C@H](N)C(=O)O; NMeV = CN[C@H](C(=O)O)C(C)C; CO = O=C([*:1])[*:2]; Ahx = NCCCCCC(=O)O

How the values were obtained:
[1] = system: heterotopic PC3pip tumors; assay: Heterotopic PC3pip tumor survival study; assay type: in vivo
Method: Male athymic nude mice were implanted subcutaneously with 1 × 10^6 of PC3pip cells 100 μL of matrigel. When tumor size reached approximately 100 mm^3 (tumor volume = Length × width^2/2), mice received drugs through tail vein injection every 4 days with a total of five doses. Mice were treated every 4 days with a total of five doses. Animals were weighed and tumor size measured every other day for 90 days. Cures were defined as no tumor present at end of the 90-day study. When tumors became too large or animals were moribund they were euthanized. Five mice were used in each group.

[2] = system: metastatic PC3pip tumor (intracardiac GFP-PC3pip cells); assay: Metastatic PC3pip survival study; assay type: in vivo, mouse; settings: 1910 nmol/kg every 4 days, five doses, 90 days, n = 8
Method: Male athymic nude mice were injected into the left ventricle of the heart with 1 × 10^5 GFP labeled PC3pip cells to generate bone metastasis. One week later, mice received 1910 nmol/kg of PSMA-1-VcMMAE or PBS every 4 days with a total of five doses and the progression of disease was monitored by GFP imaging. Eight mice were used in each group.

[3] = biological target: T1, human liver cathepsin B (Homo sapiens, UniProt P07858); assay: Enzymatic cleavage by cathepsin B, HPLC analysis; assay type: in vitro ADME; settings: activated human liver cathepsin B, 2 μM conjugate, 37 °C, triplicate
T1 construct: purchased Anthens Research and Technology, Anthens, AL, USA (so in the source); host or cells: human liver (tissue-derived enzyme)
Method: (§1) Cathepsin is a prevalent protease that PSMA internalized ligands will encounter as they enter into late endosomes/lysosomes. To investigate if PSMA-targeted drug conjugates were cleavable by cathepsin B, the two conjugates were incubated with or without cathepsin protease and chromatographed by high performance liquid chromatography (HPLC).
(§2) At different time intervals, 40 μL of the solution was taken out into tubes loaded with 1 μL of 1 mM E64 protease inhibitor. […] Studies were performed in triplicate.

[4] = biological target: T2, PSMA (Homo sapiens, UniProt Q04609); assay: Competitive binding assay against 3H-ZJ24 on PC3pip cells
T2 construct: expressed in transfected cells; host or cells: PC3pip cells (PC3 retrovirally transfected with PSMA), from Dr. Michel Sadelain, MSKCC
T2 sequence (Q04609 whole entry): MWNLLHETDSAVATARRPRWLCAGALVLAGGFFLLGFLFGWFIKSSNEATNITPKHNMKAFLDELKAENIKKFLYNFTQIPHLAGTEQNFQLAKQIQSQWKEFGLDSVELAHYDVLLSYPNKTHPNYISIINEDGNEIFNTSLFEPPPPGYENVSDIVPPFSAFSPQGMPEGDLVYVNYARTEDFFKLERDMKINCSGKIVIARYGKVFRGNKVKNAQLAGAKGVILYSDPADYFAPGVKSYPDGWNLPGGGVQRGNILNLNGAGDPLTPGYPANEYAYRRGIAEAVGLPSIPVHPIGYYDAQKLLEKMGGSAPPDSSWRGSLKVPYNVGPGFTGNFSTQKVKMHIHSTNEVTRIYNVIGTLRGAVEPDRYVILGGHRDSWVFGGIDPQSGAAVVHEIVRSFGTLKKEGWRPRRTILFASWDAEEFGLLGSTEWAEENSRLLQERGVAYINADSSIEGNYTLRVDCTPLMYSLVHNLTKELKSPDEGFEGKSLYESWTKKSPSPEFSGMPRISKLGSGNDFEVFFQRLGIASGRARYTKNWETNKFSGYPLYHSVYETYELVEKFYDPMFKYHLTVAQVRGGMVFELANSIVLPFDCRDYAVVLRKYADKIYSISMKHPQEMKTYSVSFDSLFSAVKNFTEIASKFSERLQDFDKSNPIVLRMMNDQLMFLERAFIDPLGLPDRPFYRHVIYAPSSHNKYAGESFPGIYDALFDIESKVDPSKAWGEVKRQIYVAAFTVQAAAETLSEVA
Method: The assay was carried as previously reported by incubation PC3pip cells with different concentrations of drug conjugates in the presence of 10 nM N-[N-[(S)-1,3-dicarboxypropyl]carbamoyl]-S-[^3H]-methyl-L-cysteine (^3H-ZJ24) (GE Healthcare Life Sciences, Chicago, IL, USA). Radioactivity of cell pellet was counted by scintillation counter. The concentration required to inhibit 50% of binding was determined (IC50) by GraphPad Prism 3.0.

[5] = system: heterotopic C4-2 tumors; assay: Heterotopic C4-2 tumor study; assay type: in vivo, mouse; settings: 1910 nmol/kg every 4 days, five doses, 7 animals
Source text: To show versatility of the antitumor activity of PSMA-1-VcMMAE, we also tested it in mice bearing heterotopic C4-2 tumors, which are androgen-independent prostate cancer cells endogenously expressing PSMA. […]
drugs through tail vein inject every 4 days with total of 5 injections as indicated by the red arrows.
[…] Values are mean ± SD of 5 animals. The plots stopped when animals died during the experiments since values are represent as mean ± SD of 5 animals.
(nmol/kg) Tumor Growth (nmol/kg) Therapeutic Index *
*: Therapeutic index is defined by MTD/effective dose.
PC3flu tumors. Treatment were scheduled every 4 days with a total of five doses as indicated by the […]
red arrow. […] For tumor growth curves and body weight curves, values are mean ± SD of 5 animals. The plots stopped when animals died during the experiments since values are represent as mean ± SD of 5 animals. (A) Tumor growth curves of mice treated with 955 nmol/kg of PSMA-1-VcMMAE. (B) Comparison of the potency of PSMA-1-VcMMAE to treat PC3pip (solid line) and PC3flu tumors (dashed line) at the dose of 955 nmol/kg. (☀, PC3pip treated versus PC3pip PBS, p = 0.0005; ★, PC3pip treated versus PC3flu PBS, p = 0.0242; ♣, PC3pip treated versus PC3flu treated, p = 0.0493). (C) Body weight changes of mice treated with 955 nmol/kg of PSMA-1-VcMMAE.
Figure 9. PSMA-1-VcMMAE was effective in heterotopic C4-2 tumor model. […]

[6] = Stability on incubation in PBS (without cathepsin), HPLC; assay type: in vitro ADME; settings: incubation with PBS without cathepsin, triplicate
Method: as §1, §2

[7] = system: orthotopic PC3pip tumors; assay: Orthotopic PC3pip survival study; assay type: in vivo, mouse; settings: 3860 nmol/kg (so in the source) i.v. every 4 days, five doses, n = 5
Method: Surgical orthotopic tumor implantation was performed as previously reported. Tumor growth/size was monitored using Siemens Acuson S2000 (Siemens AG. Munich, Germany) ultrasound scanner. When the tumors were at the appropriate size (5 mm diameter as measured by ultrasound, approximately 2 weeks) animals were given PSMA-1-VcMMAE, or PBS every 4 days with a total of five doses. Tumors were monitored every other day by ultrasound. Each group utilized five mice.

[8] = In vitro cytotoxicity assay (CCK-8), PC3pip; assay type: cell-based, human; settings: human; for EC50 at 72 h: PC3pip cells
Method: Cells (1000/well) were seeded in 96-well culture plates the day before treatment.

[9] = 3820 nmol/kg i.v. every 4 days, five doses, n = 5

Structure (SMILES): CC[C@H](C)[C@@H]([C@@H](CC(=O)N1CCC[C@H]1[C@H](OC)[C@@H](C)C(=O)N[C@H](C)[C@@H](O)c1ccccc1)OC)N(C)C(=O)[C@@H](NC(=O)[C@H](C(C)C)N(C)C(=O)OCc1ccc(NC(=O)[C@H](CCCNC(N)=O)NC(=O)[C@@H](NC(=O)CCCCCN2C(=O)CC(SC[C@H](NC(=O)[C@@H](CCC(=O)O)NC(=O)[C@@H](CCC(=O)O)NC(=O)[C@@H](CCC(=O)O)NC(=O)CCCCCNC(=O)C3CCC(CNC(=O)CC[C@H](NC(=O)N[C@@H](CCC(=O)O)C(=O)O)C(=O)O)CC3)C(=O)NCCCCCC(=O)N[C@@H](CCCCN)C(N)=O)C2=O)C(C)C)cc1)C(C)C (some centres unmarked) [PSMA-1-VcMMAE] (I: {Glu-CO-γGlu}-[X1][Ahx][dE][dE][dE]C[Ahx]K-NH2 / II: V[Cit][PABC][NMeV]V[Dil][Dolaproine]-X2; linker I:6-II:N via Hexanoyl(6-succinimido-3yl))
- tumor growth (in words), 191 nmol/kg ([1]; 191 nmol/kg i.v. every 4 days, five doses, n = 5): significant tumor inhibition
- cures, 955 nmol/kg ([1]; 955 nmol/kg i.v. every 4 days, five doses, n = 5): 2/5
- histology (H&E) of major organs (in words) ([1]; 3820 nmol/kg every 4 days, five injections, day 21): no noticeable histological changes; also recorded: no histological damage in salivary gland
- cure rate, 3820 nmol/kg [1, 9]: 60%
- cures (tumor-free mice at 90 days), 3820 nmol/kg [1, 9]: three out of five
- survival over 90-day experimental time, 3820 nmol/kg [1, 9]: all five mice survived
- therapeutic index ([1]; MTD/effective dose): 20
- lowest dose to effectively inhibit tumor growth ([1]; i.v. every 4 days, five doses, tumor growth inhibited for 30 days, n = 5): 382 nmol/kg
- body weight (in words) ([1]; up to 3820 nmol/kg i.v. every 4 days, five doses): No body weight loss
- cures, metastatic PC3pip [2]: six out of eight
- cure rate, metastatic PC3pip ([2]; started 1 week after cardiac injection): 75%
- cleavage by cathepsin B (in words) [3]: release of free MMAE
- IC50 [4]: 4.34 nM
- cures, C4-2 tumors [5]: 2 / 7
- stability in PBS (in words) [6]: stable
- tumor free mice, orthotopic PC3pip, 3860 nmol/kg [7]: one
- selectivity ratio at 72 h ([8]; PC3pip and PC3flu cells, more potent for PC3pip than PC3flu, read-out: selectivity, differential cytotoxicity ratio between PC3pip and PC3flu cells): 48
- EC50 at 72 h ([8]; 72 h, CCK-8, in the presence of 10 μM of PSMA-1, read-out: EC50, cytotoxicity to PC3pip cells + PSMA-1): 241 ± 8.6 nM
- EC50 at 72 h ([8]; 72 h, CCK-8, in the presence of protease inhibitor E64 (50 μM given for the Cy5.5 conjugates), read-out: EC50, cytotoxicity to PC3pip cells + E64): 31.1 ± 2.11 nM
- EC50 at 72 h ([8]; 72 h incubation, CCK-8, mean ± SD, read-out: EC50, cytotoxicity to PC3pip cells): 4.64 ± 0.83 nM
